Format in all cases: in vivo
What all share (details): 250 g/ha, after 13 days

For assay [1], the system named is Ipomoea hederacea (IPOHE). Description: B1 Post-Emergence Efficacy Test 1. The procedure:
(§1) Seeds of a variety of test species are sown in standard soil in pots:— Solanum nigrum (SOLNI), Amaranthus retoflexus (AMARE), Setaria faberi (SETFA), Echinochloa crus-galli (ECHCG), Ipomoea hederacea (IPOHE), Lolium perenne (LOLPE). After 8 days cultivation (post-emergence) under controlled conditions in a glasshouse (at 24/16° C., day/night; 14 hours light; 65% humidity), the plants are sprayed with an aqueous spray solution derived from the formulation of the technical active ingredient in acetone/water (50:50) solution containing 0.5% Tween 20 (polyoxyethylene sorbitan monolaurate, CAS RN 9005-64-5). Compounds are applied at 250 g/ha. The test plants are then grown in a glasshouse under controlled conditions in a glasshouse (at 24/16° C., day/night; 14 hours light; 65% humidity) and watered twice daily. After 13 days, the test is evaluated for the percentage damage caused to the plant. The biological activities are assessed on a five point scale (5=80-100%; 4=60-79%; 3=40-59%; 2=20-39%; 1=0-19%). A blank value in the table is indicative that the compound was not tested on that species.

For assay [2], the system named is Lolium perenne (LOLPE). The assay is described as follows: B1 Post-Emergence Efficacy Test 1. The protocol:
as §1

Assay [3] deals with Solanum nigrum (SOLNI). The assay is described as follows: B1 Post-Emergence Efficacy Test 1. The protocol:
as §1

Assay [4] has as its system Setaria faberi (SETFA). The assay is described as follows: B1 Post-Emergence Efficacy Test 1. The procedure:
as §1

In assay [5] the test system is Echinochloa crus-galli (ECHCG). The assay is described as follows: B1 Post-Emergence Efficacy Test 1. The procedure: as §1
Assay [6] relates to Amaranthus retoflexus (AMARE). Description: B1 Post-Emergence Efficacy Test 1. The procedure: as §1
Assay [7] has as its system Ipomoea hederacea (IPOHE). The assay is described as follows: B3 Pre-Emergence Efficacy Test 1. The protocol: (§2) Seeds of a variety of test species were sown in standard soil in pots: Solanum nigrum (SOLNI), Amaranthus retoflexus (AMARE), Setaria faberi (SETFA), Echinochloa crus-galli (ECHCG), Ipomoea hederacea (IPOHE), Lolium perenne (LOLPE). After cultivation for one day (pre-emergence) under controlled conditions in a glasshouse (at 24/16° C., day/night; 14 hours light; 65% humidity), the plants were sprayed with an aqueous spray solution derived from the formulation of the technical active ingredient in acetone/water (50:50) solution containing 0.5% Tween 20 (polyoxyethelyene sorbitan monolaurate, CAS RN 9005-64-5). Compounds are applied at 250 g/ha. The test plants were then grown in a glasshouse under controlled conditions (at 24/16° C., day/night; 14 hours light; 65% humidity) and watered twice daily. After 13 days, the test is evaluated for the percentage damage caused to the plant. The biological activities are assessed on a five point scale (5=80-100%; 4=60-79%; 3=40-59%; 2=20-39%; 1=0-19%). A blank value in the table is indicative that the compound was not tested on that species.

Assay [8] deals with Lolium perenne (LOLPE). The assay is described as follows: B3 Pre-Emergence Efficacy Test 1. The procedure: as §2
In assay [9] the test system is Solanum nigrum (SOLNI). Description: B3 Pre-Emergence Efficacy Test 1. The protocol:
as §2

For assay [10], the system named is Setaria faberi (SETFA). The assay is described as follows: B3 Pre-Emergence Efficacy Test 1. The procedure:
as §2

Assay [11] deals with Echinochloa crus-galli (ECHCG). The assay is described as follows: B3 Pre-Emergence Efficacy Test 1. The procedure:
as §2

Assay [12] concerns Amaranthus retoflexus (AMARE). The assay is described as follows: B3 Pre-Emergence Efficacy Test 1. The protocol: as §2
The subject of assay [13] is Ipomoea hederacea (IPOHE). The assay is described as follows: B4 Pre-Emergence Efficacy Test 2.
In assay [14] the test system is Setaria faberi (SETFA). The assay is described as follows: B4 Pre-Emergence Efficacy Test 2.
Assay [15] deals with Zea Mays (ZEAMX). The assay is described as follows: B4 Pre-Emergence Efficacy Test 2.
For assay [16], the system named is Echinochloa crus-galli (ECHCG). The assay is described as follows: B4 Pre-Emergence Efficacy Test 2.
The subject of assay [17] is Abutilon theophrasti (ABUTH). Description: B4 Pre-Emergence Efficacy Test 2.
Assay [18] concerns Amaranthus retoflexus (AMARE). The assay is described as follows: B4 Pre-Emergence Efficacy Test 2.
Assay [19] has as its system Ipomoea hederacea (IPOHE). Description: B2 Post-Emergence Efficacy Test 2.
The subject of assay [20] is Setaria faberi (SETFA). Description: B2 Post-Emergence Efficacy Test 2.
The test system of assay [21] is Zea Mays (ZEAMX). The assay is described as follows: B2 Post-Emergence Efficacy Test 2.
Assay [22] deals with Abutilon theophrasti (ABUTH). Description: B2 Post-Emergence Efficacy Test 2.
The subject of assay [23] is Amaranthus retoflexus (AMARE). Description: B2 Post-Emergence Efficacy Test 2.

Consider `Cc1nn(C)c(=O)c(-c2c(F)ccc(Cl)c2CCc2ccc3c(c2)CCCN3)c1O` [Compound 1.019], for which the “percentage damage caused to the plant, five point scale, IPOHE” value (from here on “percentage damage caused … IPOHE”) in assay [1] was 5 (5=80-100%); in assay [7] it was 1 (1=0-19%). The “percentage damage caused to the plant, five point scale, LOLPE” value (“percentage damage caused … LOLPE” below) in the assay with Lolium perenne (LOLPE) [2] is listed as 5 (5=80-100%); in the assay with Lolium perenne (LOLPE) [8] it was 3 (3=40-59%). Moreover, the “percentage damage caused to the plant, five point scale, SOLNI” value (shortened to “percentage damage caused … SOLNI”) with Solanum nigrum (SOLNI) [3] and in the assay with Solanum nigrum (SOLNI) [9] was 5 (5=80-100%) throughout. Besides, the “percentage damage caused to the plant, five point scale, SETFA” value (“percentage damage caused … SETFA” for short) with Setaria faberi (SETFA) [4] is 5 (5=80-100%); in the assay with Setaria faberi (SETFA) [10], 4 (4=60-79%). The “percentage damage caused to the plant, five point scale, ECHCG” value (“percentage damage caused … ECHCG” below) in [5] is reported as 3 (3=40-59%); in assay [11], 1 (1=0-19%). The entries for the “percentage damage caused to the plant, five point scale, AMARE” value (shortened to “percentage damage caused … AMARE”) in assay [6] and in [12] were 4 (4=60-79%) and 5 (5=80-100%), respectively.
With `Cc1nn(C)c(=O)c(-c2c(F)ccc(Cl)c2CCc2cc(C(F)(F)F)nc3ccccc23)c1O` [Compound 1.027], the entries for the “percentage damage caused … IPOHE” value in assay [1] and in assay [7] were 5 (5=80-100%) and 3 (3=40-59%), respectively. The entries for the “percentage damage caused … LOLPE” value in the assay with Lolium perenne (LOLPE) [2] and in the assay with Lolium perenne (LOLPE) [8] were 4 (4=60-79%) and 3 (3=40-59%), respectively. Further, the “percentage damage caused … SETFA” value with Setaria faberi (SETFA) [4] is 4 (4=60-79%); in the assay on Setaria faberi (SETFA) [10], 1 (1=0-19%). The “percentage damage caused … ECHCG” value was 4 (4=60-79%) in assay [5] and 3 (3=40-59%) in assay [11]. Further, the “percentage damage caused … AMARE” value is on record as 2 (2=20-39%) in assay [6] and 1 (1=0-19%) in assay [12]. For the same compound, the “percentage damage caused … SOLNI” value with Solanum nigrum (SOLNI) [9] is recorded as 4 (4=60-79%).
`CCc1nc2ccc(CCc3c(Cl)ccc(F)c3-c3c(O)c(C)nn(C)c3=O)cc2o1` [Compound 1.028]: the “percentage damage caused … IPOHE” value in assay [1] and in [7] was 5 (5=80-100%) throughout. Further, the “percentage damage caused … LOLPE” value in the assay on Lolium perenne (LOLPE) [2] and with Lolium perenne (LOLPE) [8] was 5 (5=80-100%) each time. Also, the “percentage damage caused … SOLNI” value in the assay with Solanum nigrum (SOLNI) [3] and in the assay with Solanum nigrum (SOLNI) [9] was 5 (5=80-100%) throughout. In addition, the “percentage damage caused … SETFA” value in the assay with Setaria faberi (SETFA) [4] and in the assay on Setaria faberi (SETFA) [10] was 5 (5=80-100%) in each case. Besides, the results for the “percentage damage caused … ECHCG” value in assay [5] and in [11] were 5 (5=80-100%) and 1 (1=0-19%), respectively. For the same compound, the “percentage damage caused … AMARE” value in assay [6] and in assay [12] was 5 (5=80-100%) in each case.
Take `Cc1nn(C)c(=O)c(-c2c(F)ccc(Cl)c2CCc2ccnc3ccccc23)c1O` [Compound 1.036]: the “percentage damage caused … IPOHE” value in assay [1] and in assay [7] was 5 (5=80-100%) throughout. In addition, the “percentage damage caused … LOLPE” value in the assay with Lolium perenne (LOLPE) [2] and with Lolium perenne (LOLPE) [8] was 5 (5=80-100%) in each case. The “percentage damage caused … SOLNI” value in the assay on Solanum nigrum (SOLNI) [3] and in the assay with Solanum nigrum (SOLNI) [9] was 5 (5=80-100%) throughout. Moreover, the “percentage damage caused … SETFA” value in the assay with Setaria faberi (SETFA) [4] and in the assay on Setaria faberi (SETFA) [10] was 5 (5=80-100%) each time. For the same compound, the “percentage damage caused … ECHCG” value in [5] and in [11] was 5 (5=80-100%) each time. The “percentage damage caused … AMARE” value in assay [6] and in assay [12] was 5 (5=80-100%) throughout.
Regarding `Cc1nn(C)c(=O)c(-c2c(F)ccc(Cl)c2CCc2ccc3c(c2)CC(=O)N3)c1O` [Compound 1.357], the “percentage damage caused … IPOHE” value is on record as 5 (5=80-100%) in [1], 3 (3=40-59%) in [13] and 4 (4=60-79%) in [19]. In the assay on Lolium perenne (LOLPE) [2], the “percentage damage caused … LOLPE” value is reported as 5 (5=80-100%). The “percentage damage caused … SOLNI” value with Solanum nigrum (SOLNI) [3] is 5 (5=80-100%). The “percentage damage caused … SETFA” value in the assay with Setaria faberi (SETFA) [4] is 5 (5=80-100%); in the assay on Setaria faberi (SETFA) [14], 4 (4=60-79%); in the assay with Setaria faberi (SETFA) [20] it was 4 (4=60-79%). Further, the “percentage damage caused … ECHCG” value in assay [5] and in assay [16] was 4 (4=60-79%) in each case. In addition, the “percentage damage caused … AMARE” value in [6] is listed as 5 (5=80-100%); in assay [18], 4 (4=60-79%); in [23], 2 (2=20-39%). Further, the “percentage damage caused to the plant, five point scale, ZEAMX” value with Zea Mays (ZEAMX) [15] is recorded as 1 (1=0-19%); in the assay with Zea Mays (ZEAMX) [21], 5 (5=80-100%). Further, the “percentage damage caused to the plant, five point scale, ABUTH” value in assay [17] and in assay [22] was 4 (4=60-79%) in each case.
For the compound `Cc1nn(C)c(=O)c(-c2c(F)ccc(Cl)c2CCc2ccc3c(c2)CCC(C)N3)c1OC(=O)C(C)C` (stereo not shown) [Compound 3.030, [5-[3-chloro-6-fluoro-2-[2-(2-methyl-1,2,3,4-tetrahydroquinolin-6-yl)ethyl]phenyl]-1,3-dimethyl-6-oxo-pyridazin-4-yl] 2-methylpropanoate], the “percentage damage caused … IPOHE” value in [1] and in assay [7] was 5 (5=80-100%) each time. In addition, the “percentage damage caused … LOLPE” value with Lolium perenne (LOLPE) [2] and with Lolium perenne (LOLPE) [8] was 5 (5=80-100%) in each case. Further, the “percentage damage caused … SOLNI” value in the assay with Solanum nigrum (SOLNI) [3] and in the assay on Solanum nigrum (SOLNI) [9] was 5 (5=80-100%) throughout. Further, the “percentage damage caused … SETFA” value in the assay with Setaria faberi (SETFA) [4] and in the assay on Setaria faberi (SETFA) [10] was 5 (5=80-100%) each time. The “percentage damage caused … ECHCG” value in [5] and in assay [11] was 5 (5=80-100%) throughout. The “percentage damage caused … AMARE” value in assay [6] and in [12] was 5 (5=80-100%) throughout.

Values taken from US12540128B2, “Substituted pyridazinones as herbicides” (SYNGENTA CROP PROTECTION AG, priority 2019, dated 2026).
